From patent US20140037694A1, “ADJUVANT FOR TRANSDERMAL OR TRANSMUCOSAL ADMINISTRATION AND PHARMACEUTICAL PREPARATION CONTAINING SAME” (HISAMITSU PHARMACEUTICAL CO., INC., priority 2011, published 2014)
Entries after “also recorded” stand apart in the source; their conditions may differ.

How the values were obtained:
[1] = tested on: OVA-specific IgG antibody titer; experiment: Microneedle (OVA) application + transdermal adjuvant application; OVA-specific IgG antibody titer by ELISA; type: in vivo, hairless rats; details: for IgG antibody titer / adjuvant effect (FIG. 5): Example 5; for IgG antibody titer / adjuvant effect (FIG. 5) / IgG antibody titer / adjuvant effect (FIG. 2): 120 μL stock solution, 6 hr after OVA microneedles; for IgG antibody titer / adjuvant effect (FIG. 5) / IgG antibody titer / adjuvant effect (FIG. 1) / IgG antibody titer / adjuvant effect (FIG. 2): titers after 5 weeks; for IgG antibody titer / adjuvant effect (FIG. 5) / IgG antibody titer / adjuvant effect (FIG. 1): compared to OVA alone; for IgG antibody titer / adjuvant effect (FIG. 1): Example 1, 120 μL stock solution on patch-test tape for 6 hr after OVA microneedles, dosing weeks 0, 2, 4; for IgG antibody titer / adjuvant effect (FIG. 2): Example 3, purified water control; for Adjuvant effect against anti-OVA IgG: titers after 4 weeks
skin = tested on: skin; set-up: Skin irritation score: key to the marks not given beside the values; details: rat, in vivo
[2] = tested on: OVA-specific IgG antibody titer; experiment: Intradermic injection (OVA) application + glycerin application; OVA-specific IgG antibody titer by ELISA; type: in vivo, hairless rats; details: Example 4; intradermal OVA 20 μg + glycerin co-used; after two weeks
Procedure: (§1) Regarding (i) and (ii), OVA 20 μg/[…] (saline) was intradermally administered.

[3] = tested on: OVA-specific IgG antibody titer; experiment: Microneedle (OVA) application + transdermal adjuvant application; OVA-specific IgG antibody titer by ELISA; type: in vivo, hairless rats; details: Example 4
Procedure: as §1

CCCCCCCC/C=C\CCCCCCCC(=O)OCC(O)CO (stereo not shown) [GMO, monoglyceryl oleate]
IgG antibody titer / adjuvant effect (FIG. 5) [1]: adjuvant effect similar to that of low molecules such as glycerin

CC(O)CO (stereo not shown) [PG, propylene glycol]
IgG antibody titer / adjuvant effect (FIG. 5) [1]: strong adjuvant effect

CCO [ethanol]
IgG antibody titer / adjuvant effect (FIG. 1) [1]: high adjuvant effect | Skin irritation observation (skin): significant skin irritation accompanied by necrosis | Skin irritation score (skin): +++

OCC(O)CO [glycerin]
IgG antibody (FIG. 4) [2]: no IgG antibody was detected | IgG antibody titer / adjuvant effect (FIG. 1) [1]: high adjuvant effect | IgG antibody titer / adjuvant effect (FIG. 2) [1]: adjuvant effect of the glycerin was confirmed | IgG antibody titer / adjuvant effect (FIG. 5) [1]: strong adjuvant effect | Adjuvant effect against anti-OVA IgG ([1]; Example 6, glycerin concentration 25%, 120 μL 6 hr): none | Adjuvant effect against anti-OVA IgG ([1]; Example 6, glycerin concentration 75%, 120 μL 6 hr): excellent adjuvant effect was confirmed | Adjuvant effect against anti-OVA IgG ([1]; Example 6, glycerin concentration 75%, 120 μL 6 hr, listed as Glycerin): present | Adjuvant effect against anti-OVA IgG ([1]; Example 7, 100% glycerin applied 10 min after antigen administration by microneedles, 6 hr): apparent increase in the IgG antibody titer; also recorded: high IgG antibody titer | Adjuvant effect against anti-OVA IgG ([1]; Example 7, 100% glycerin applied 10 min after antigen administration by microneedles, 6 hr, listed as Glycerin): present | Adjuvant effect against anti-OVA IgG ([1]; Example 7, simultaneously with antigen, mixture of OVA/pullulan/41% glycerin on microneedles): no adjuvant effect was observed | Adjuvant effect against anti-OVA IgG ([1]; Example 7, simultaneously with antigen, mixture of OVA/pullulan/41% glycerin on microneedles, listed as Glycerin): none | Adjuvant effect ([1]; glycerin concentration 100 wt %): particularly excellent adjuvant effect | Adjuvant effect (FIG. 3) ([3]; OVA by microneedles + glycerin 120 μL 6 hr, titers after 4 weeks, compared to intradermal injection of OVA): exhibited more clearly by the microneedle application | IgG antibody titer time course (FIG. 4) ([3]; OVA microneedles with concomitant glycerin, from 2 weeks): increase the IgG antibody titer was observed

CC(C)=CCC/C(C)=C/CC/C(C)=C/CC/C=C(\C)CC/C=C(\C)CCC=C(C)C [squalene, reference compound]
IgG antibody titer / adjuvant effect (FIG. 2) [1]: low IgG antibody titer similar to the control | Skin irritation (skin): no skin irritation

CC(=O)OCC(COC(C)=O)OC(C)=O [triacetin]
IgG antibody titer / adjuvant effect (FIG. 5) [1]: strong adjuvant effect
